{"source": "patent US5177204A", "about": "“Derivatives of 4-(2,4-difluorbiphenylyl)-2-methyl-4-oxobutanoic acid” (Vyzkumng, USTAV pro farmacii a biochemii, Statni podnik, priority 1990, dated 1993)", "key": {"[1]": {"assay": "Acute toxicity, mortality after a single dose (oral or intravenous)", "assay_type": "in vivo", "conditions": "mouse, male mice; for mortality at 168 h: in vivo, po, 500 mg/kg, Table I, single oral dose of 500 mg/kg, day 7 after application", "method": "(§1) ^a Acute oral toxicity of each substance was evaluated after a single\n(§2) dose of 500 mg/kg in male mice. The mortality in % is for day 7 after\n(§3) ^a Acute toxicity was evaluated after a single dose of substance 1764\n(§4) in male mice, namely orally as an aqueous solution, and intravenously in\n(§5) physiological saline solution. Mortality was followed up in groups of 10\n(§6) animals for 7 days upon oral application and for 3 days upon intravenous"}, "[2]": {"assay": "Suppression of carragenine oedema (CE), anti-inflammatory effect", "assay_type": "in vivo", "conditions": "for CE suppression %: Table II; for CE inhibition %: Table I, oral suspension in 0.5% methylcellulose, dose equimolar to flobufen 20 mg/kg, 1 hour upon application", "method": "(§7) ^b Antiinflammatory and analgesic activity was evaluated in compariso\n(§8) with flobufen in equimolar doses, while flobufen was administered in a\n(§9) dose of 20 mg/kg in the evaluation of antiinflammatory activity and in a\n(§10) dose of 100 mg/kg in the evaluation of analgesic activity; the substances\n(§11) were administered orally as a suspension in a 0.5% solution of\n(§12) methylcellulose and the oedema was measured 1 hour upon application;\n^c Suppression of the carraganine oedema was assessed according to\nWinter J.: Proc. Soc. exptl. Biol. Med., 111, 544 (1962);\n(§13) ^b for oral and intramuscular application an aqueous solution of\n(§14) substance 17640 was used in said dose;\n(§15) ^c the standard, i.e. 4(2,4-difluorobiphenylyl)-2-methyl-4-oxobutanic\n(§16) acid was administered as a suspension in a 0.5% methylcellulose solution."}, "[3]": {"assay": "Freund adjuvant test, inhibition of adjuvant oedema (FA), anti-inflammatory effect", "assay_type": "in vivo", "conditions": "for FA suppression %: Table II, oral; for FA inhibition %: Table I, oral suspension in 0.5% methylcellulose, dose equimolar to flobufen 20 mg/kg", "method": "as §7, §8, §9, §10, §11, §12\n^d Antiinflammatory effect in the Freundadjuvant test was assessed\naccording to Horakova Z., Grimova J.: Cs. Fysiol. 17, 137 (1968);\nas §13, §14, §15, §16"}, "[4]": {"assay": "Analgesic activity, intraperitoneal irritation with 0.7% acid", "assay_type": "in vivo, male mice", "conditions": "for Pain suppression %: Table II; for Pain inhibition %: Table I, oral suspension in 0.5% methylcellulose, dose equimolar to flobufen 100 mg/kg, male mice", "method": "as §7, §8, §9, §10, §11\n^e Analgesic activity was evaluated in the test of intraperitoneal\nirritation with 0.7% acid in male mice according to Witkin L. et al.: J.\nas §13, §14, §15, §16"}, "male mice": {"system": "male mice", "assay": "Acute toxicity, mortality after a single dose (oral or intravenous)", "assay_type": "in vivo", "conditions": "500 mg/kg, 10080 min; for % mortality: Table I, single oral dose of 500 mg/kg, day 7 after application", "method": "as §1, §2, §3, §4, §5, §6"}}, "note": "Where a name gives a salt, the structure may show the parent alone."}
{"smiles": "CC(CC(=O)c1ccc(-c2ccc(F)cc2F)cc1)C(=O)O", "note": "(stereo not drawn) [VUFB 17640]", "values": [{"measurement": "mortality at 72 h", "setting": "[1]; physiological saline, iv, 100 mg/kg, Table II, parenteral (intravenous), dose 100, physiological saline, 3 days", "result": 0, "unit": "%"}, {"measurement": "CE suppression %", "setting": "[2]; oral, dose 30, aqueous solution", "result": 46, "unit": "%"}, {"measurement": "CE suppression %", "setting": "[2]; parenteral (intramuscular), dose 1, aqueous solution", "result": 21, "unit": "%"}, {"measurement": "CE suppression %", "setting": "[2]; parenteral (intramuscular), dose 10, aqueous solution", "result": 40, "unit": "%"}, {"measurement": "FA suppression %", "setting": "[3]; dose 30, aqueous solution", "result": 58, "unit": "%"}, {"measurement": "Pain suppression %", "setting": "[4]; oral, dose 150, aqueous solution", "result": 77, "unit": "%"}, {"measurement": "Pain suppression %", "setting": "[4]; parenteral (intramuscular), dose 80, aqueous solution", "result": 48, "unit": "%"}]}
{"smiles": "CCOC(=O)CNC(=O)C(C)CC(=O)c1ccc(-c2ccc(F)cc2F)cc1", "note": "(stereo not drawn) [VUFB 18392]", "values": [{"measurement": "mortality at 168 h", "setting": "[1]", "result": 0, "unit": "%"}, {"measurement": "CE inhibition %", "setting": "[2]", "result": 40, "unit": "%"}, {"measurement": "FA inhibition %", "setting": "[3]", "result": 51, "unit": "%"}, {"measurement": "Pain inhibition %", "setting": "[4]", "result": 41, "unit": "%"}]}
{"smiles": "CCOC(=O)C(C)CC(=O)c1ccc(-c2ccc(F)cc2F)cc1", "note": "(stereo not drawn) [VUFB 18391]", "values": [{"measurement": "mortality at 168 h", "setting": "[1]", "result": 0, "unit": "%"}, {"measurement": "CE inhibition %", "setting": "[2]", "result": 49, "unit": "%"}, {"measurement": "FA inhibition %", "setting": "[3]", "result": 55, "unit": "%"}, {"measurement": "Pain inhibition %", "setting": "[4]", "result": 38, "unit": "%"}]}
{"smiles": "CCCCNC(=O)C(C)CC(=O)c1ccc(-c2ccc(F)cc2F)cc1", "note": "(stereo not drawn) [VUFB 18398, n-Butylamide of 4-/2,4-Difluorobiphenylyl/-2-methyl-4-oxobutan Acid]", "values": [{"measurement": "mortality at 168 h", "setting": "[1]", "result": 0, "unit": "%"}, {"measurement": "CE inhibition %", "setting": "[2]", "result": 33, "unit": "%"}, {"measurement": "FA inhibition %", "setting": "[3]", "result": 44, "unit": "%"}, {"measurement": "Pain inhibition %", "setting": "[4]", "result": 33, "unit": "%"}]}
{"smiles": "CC(CC(=O)c1ccc(-c2ccc(F)cc2F)cc1)C(=O)O", "note": "(stereo not drawn) [VUFB 17629, Cyclohexylammonium Salt of 4-/2,4-Difluorobiphenylyl/-2-methyl-4-oxobutan Acid]", "values": [{"measurement": "% mortality", "setting": "male mice", "result": 0, "unit": "%"}, {"measurement": "CE inhibition %", "setting": "[2]", "result": 47, "unit": "%"}, {"measurement": "FA inhibition %", "setting": "[3]", "result": 53, "unit": "%"}, {"measurement": "Pain inhibition %", "setting": "[4]", "result": 58, "unit": "%"}]}
{"smiles": "CC(CC(=O)c1ccc(-c2ccc(F)cc2F)cc1)C(=O)O", "note": "(stereo not drawn) [VUFB 18405, Potassium Salt of 4-/2,4-Difluorobiphenylyl/-2-methyl-4-oxobutan Acid]", "values": [{"measurement": "% mortality", "setting": "male mice", "result": 20, "unit": "%"}, {"measurement": "CE inhibition %", "setting": "[2]", "result": 39, "unit": "%"}, {"measurement": "FA inhibition %", "setting": "[3]", "result": 50, "unit": "%"}, {"measurement": "Pain inhibition %", "setting": "[4]", "result": 47, "unit": "%"}]}
{"smiles": "CC(CC(=O)c1ccc(-c2ccc(F)cc2F)cc1)C(=O)O", "note": "(stereo not drawn) [VUFB 18404]", "values": [{"measurement": "% mortality", "setting": "male mice", "result": 30, "unit": "%"}, {"measurement": "CE inhibition %", "setting": "[2]", "result": 44, "unit": "%"}, {"measurement": "FA inhibition %", "setting": "[3]", "result": 51, "unit": "%"}, {"measurement": "Pain inhibition %", "setting": "[4]", "result": 35, "unit": "%"}]}
{"smiles": "CC(CC(=O)c1ccc(-c2ccc(F)cc2F)cc1)C(=O)O", "note": "(stereo not drawn) [Flobufen, 4(2,4-difluorobiphenylyl)-2-methyl-4-oxobutanic acid, reference compound]", "values": [{"measurement": "% mortality", "setting": "male mice", "result": 50, "unit": "%"}, {"measurement": "Acute toxicity, % mortality", "setting": "male mice; Table II, oral, dose 500, aqueous solution (flobufen: suspension in 0.5% methylcellulose), 7 days", "result": 50, "unit": "%"}, {"measurement": "CE inhibition %", "setting": "[2]", "result": 46, "unit": "%"}, {"measurement": "CE suppression %", "setting": "[2]; oral, dose 20, suspension in 0.5% methylcellulose", "result": 46, "unit": "%"}, {"measurement": "FA inhibition %", "setting": "[3]", "result": 65, "unit": "%"}, {"measurement": "FA suppression %", "setting": "[3]; dose 20, suspension in 0.5% methylcellulose", "result": 65, "unit": "%"}, {"measurement": "Pain inhibition %", "setting": "[4]", "result": 79, "unit": "%"}, {"measurement": "Pain suppression %", "setting": "[4]; oral, dose 100, suspension in 0.5% methylcellulose", "result": 79, "unit": "%"}]}
